Assay results: BigSolDB 2.1

## O=c1ccc2ccccc2o1
In cyclohexane, 283.15 K
  solubility (mole fraction): 0.00162
In cyclohexane, 288.15 K
  solubility (mole fraction): 0.00236
In cyclohexane, 293.15 K
  solubility (mole fraction): 0.00321
In cyclohexane, 298.15 K
  solubility (mole fraction): 0.00428
In cyclohexane, 303.15 K
  solubility (mole fraction): 0.00607
In cyclohexane, 308.15 K
  solubility (mole fraction): 0.00824
In cyclohexane, 313.15 K
  solubility (mole fraction): 0.0111
In cyclohexane, 318.15 K
  solubility (mole fraction): 0.0144
In ethanol, 278.15 K
  solubility (mole fraction): 0.0071
In ethanol, 283.15 K
  solubility (mole fraction): 0.011
In ethanol, 288.15 K
  solubility (mole fraction): 0.0205
In ethanol, 293.15 K
  solubility (mole fraction): 0.0331
In ethanol, 298.15 K
  solubility (mole fraction): 0.0533
In ethanol, 303.15 K
  solubility (mole fraction): 0.0869
In ethanol, 308.15 K
  solubility (mole fraction): 0.138
In ethanol, 313.15 K
  solubility (mole fraction): 0.222
In ethanol, 318.15 K
  solubility (mole fraction): 0.357
In isopropanol, 278.15 K
  solubility (mole fraction): 0.00371
In isopropanol, 283.15 K
  solubility (mole fraction): 0.00604
In isopropanol, 288.15 K
  solubility (mole fraction): 0.0108
In isopropanol, 293.15 K
  solubility (mole fraction): 0.0204
In isopropanol, 298.15 K
  solubility (mole fraction): 0.0351
In isopropanol, 303.15 K
  solubility (mole fraction): 0.0604
In isopropanol, 308.15 K
  solubility (mole fraction): 0.101
In isopropanol, 313.15 K
  solubility (mole fraction): 0.171
In isopropanol, 318.15 K
  solubility (mole fraction): 0.282
In methanol, 278.15 K
  solubility (mole fraction): 0.012
In methanol, 283.15 K
  solubility (mole fraction): 0.0182
In methanol, 288.15 K
  solubility (mole fraction): 0.0303
In methanol, 293.15 K
  solubility (mole fraction): 0.05
In methanol, 298.15 K
  solubility (mole fraction): 0.0802
In methanol, 303.15 K
  solubility (mole fraction): 0.122
In methanol, 308.15 K
  solubility (mole fraction): 0.199
In methanol, 313.15 K
  solubility (mole fraction): 0.32
In methanol, 318.15 K
  solubility (mole fraction): 0.484
In n-hexane, 278.15 K
  solubility (mole fraction): 0.000862
In n-hexane, 283.15 K
  solubility (mole fraction): 0.00118
In n-hexane, 288.15 K
  solubility (mole fraction): 0.00169
In n-hexane, 293.15 K
  solubility (mole fraction): 0.0024
In n-hexane, 298.15 K
  solubility (mole fraction): 0.00319
In n-hexane, 303.15 K
  solubility (mole fraction): 0.00421
In n-hexane, 308.15 K
  solubility (mole fraction): 0.00574
In n-hexane, 313.15 K
  solubility (mole fraction): 0.00746
In n-hexane, 318.15 K
  solubility (mole fraction): 0.00962
In n-propanol, 278.15 K
  solubility (mole fraction): 0.00521
In n-propanol, 283.15 K
  solubility (mole fraction): 0.00952
In n-propanol, 288.15 K
  solubility (mole fraction): 0.0172
In n-propanol, 293.15 K
  solubility (mole fraction): 0.0282
In n-propanol, 298.15 K
  solubility (mole fraction): 0.0469
In n-propanol, 303.15 K
  solubility (mole fraction): 0.0781
In n-propanol, 308.15 K
  solubility (mole fraction): 0.124
In n-propanol, 313.15 K
  solubility (mole fraction): 0.202
In n-propanol, 318.15 K
  solubility (mole fraction): 0.33
